{"source": "paper PMC11480411", "about": "“Mucosal sugars delineate pyrazine vs pyrazinone autoinducer signaling in Klebsiella oxytoca” (Nature Communications, 2024)", "assay_type_in_all_cases": "cell-based", "key": {"P2RY2": {"target": "T1, P2RY2 (Homo sapiens, UniProt P41231)", "T1 construct": "purchased PRESTO-Tango GPCR kit (Roth lab / Addgene)", "T1 sequence (P41231 whole entry)": "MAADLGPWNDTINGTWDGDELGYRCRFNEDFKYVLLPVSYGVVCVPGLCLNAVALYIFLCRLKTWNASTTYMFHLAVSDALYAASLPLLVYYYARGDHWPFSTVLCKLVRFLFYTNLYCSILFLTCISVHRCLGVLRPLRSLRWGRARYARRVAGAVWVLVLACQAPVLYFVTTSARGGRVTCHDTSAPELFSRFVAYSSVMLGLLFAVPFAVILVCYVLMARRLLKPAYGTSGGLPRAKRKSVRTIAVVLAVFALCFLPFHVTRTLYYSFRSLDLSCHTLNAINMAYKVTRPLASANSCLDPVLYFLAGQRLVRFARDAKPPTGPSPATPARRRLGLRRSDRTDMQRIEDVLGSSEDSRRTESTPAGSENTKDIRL", "experiment": "PRESTO-Tango GPCR screen", "details": "100 µM", "description": "(§1) The PRESTO-Tango analyses were performed as previously published. Briefly, HTLA cells, a HEK293 cell line that stably expresses β-arrestin-TEV and tTA-Luciferase (a kind gift from Gilad Barnea, Brown University), were plated in 96-well tissue culture plates (Eppendorf) in DMEM containing 10% FBS and 1% Penicillin/Streptomycin. One day after plating (after reaching approximately 90% confluence), 200 ng per well GPCR-Tango plasmids[37] in 20 μL DMEM were individually mixed with 400 ng polyethylenimine (Polysciences) in an equal volume of DMEM and incubated for 20 min at room temperature before adding the transfection mixture to the HTLA cells. 16-24 h after transfection, medium was replaced with 180 μL fresh DMEM containing 1% Penicillin/Streptomycin and 10 mM HEPES and 20 μL of 3 or 3-Homo to reach a final concentration of 100 μM. Supernatants were aspirated 20 h after stimulation and 50 μl per well of Bright-Glo solution (Promega) diluted 20-fold with PBS containing 20 mM HEPES was added into each well. After 15 min incubation at room temperature, luminescence was quantified using a Spectramax i3x microplate reader (Molecular Devices). Activation fold for each sample was calculated by dividing relative luminescence units (RLU) for each condition by RLUs from PBS control. Dose response curves of each chemical were performed in a similar way with varying the ligand concentration from 10^−4 M to 10^−15 M."}, "GPBA": {"target": "T2, GPBA (Homo sapiens, UniProt Q8TDU6)", "T2 construct": "purchased PRESTO-Tango GPCR kit (Roth lab / Addgene)", "experiment": "PRESTO-Tango GPCR screen", "details": "100 µM", "description": "as §1"}, "CCR6": {"target": "T3, CCR6 (Homo sapiens, UniProt P51684)", "T3 construct": "purchased PRESTO-Tango GPCR kit (Roth lab / Addgene)", "T3 sequence (P51684 whole entry)": "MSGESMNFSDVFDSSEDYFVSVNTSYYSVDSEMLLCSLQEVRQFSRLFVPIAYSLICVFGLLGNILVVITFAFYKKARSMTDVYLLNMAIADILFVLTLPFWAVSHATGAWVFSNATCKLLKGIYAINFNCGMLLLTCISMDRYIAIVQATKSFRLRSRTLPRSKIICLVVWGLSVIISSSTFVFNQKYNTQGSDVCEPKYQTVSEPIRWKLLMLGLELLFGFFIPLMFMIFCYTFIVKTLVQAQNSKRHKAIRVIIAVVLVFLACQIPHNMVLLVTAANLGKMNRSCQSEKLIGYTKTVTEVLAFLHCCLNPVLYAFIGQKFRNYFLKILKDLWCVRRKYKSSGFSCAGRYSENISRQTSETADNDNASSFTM", "experiment": "PRESTO-Tango GPCR screen", "details": "100 µM", "description": "as §1"}, "VIPR2": {"target": "T4, VIPR2 (Homo sapiens, UniProt P41587)", "T4 construct": "purchased PRESTO-Tango GPCR kit (Roth lab / Addgene)", "T4 sequence (P41587 24-438)": "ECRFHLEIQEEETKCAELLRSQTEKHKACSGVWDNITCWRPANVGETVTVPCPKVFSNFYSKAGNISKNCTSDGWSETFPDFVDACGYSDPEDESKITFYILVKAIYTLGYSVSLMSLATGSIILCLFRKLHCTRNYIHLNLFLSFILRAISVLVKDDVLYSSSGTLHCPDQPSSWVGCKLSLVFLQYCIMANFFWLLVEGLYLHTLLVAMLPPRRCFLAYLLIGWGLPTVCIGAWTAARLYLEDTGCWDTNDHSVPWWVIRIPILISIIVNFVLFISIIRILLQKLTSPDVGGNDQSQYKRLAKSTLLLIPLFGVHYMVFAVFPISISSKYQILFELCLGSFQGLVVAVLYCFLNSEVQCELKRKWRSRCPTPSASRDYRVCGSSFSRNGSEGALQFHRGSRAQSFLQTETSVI", "experiment": "PRESTO-Tango GPCR screen", "details": "100 µM", "description": "as §1"}, "GPR77": {"target": "T5, GPR77 (Homo sapiens, UniProt Q9P296)", "T5 construct": "purchased PRESTO-Tango GPCR kit (Roth lab / Addgene)", "T5 sequence (Q9P296 whole entry)": "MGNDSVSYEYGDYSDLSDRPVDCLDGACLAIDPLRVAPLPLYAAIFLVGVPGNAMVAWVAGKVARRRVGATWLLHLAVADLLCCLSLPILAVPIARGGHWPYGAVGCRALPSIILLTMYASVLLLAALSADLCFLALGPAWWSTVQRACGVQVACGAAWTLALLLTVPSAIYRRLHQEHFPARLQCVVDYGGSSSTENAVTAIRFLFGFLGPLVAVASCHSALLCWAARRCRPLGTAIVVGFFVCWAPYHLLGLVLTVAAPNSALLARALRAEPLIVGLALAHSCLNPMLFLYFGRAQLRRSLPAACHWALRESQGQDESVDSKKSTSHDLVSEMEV", "experiment": "PRESTO-Tango GPCR screen", "details": "100 µM", "description": "as §1"}, "GPR143": {"target": "T6, GPR143 (Homo sapiens, UniProt P51810)", "T6 construct": "purchased PRESTO-Tango GPCR kit (Roth lab / Addgene)", "T6 sequence (P51810 whole entry)": "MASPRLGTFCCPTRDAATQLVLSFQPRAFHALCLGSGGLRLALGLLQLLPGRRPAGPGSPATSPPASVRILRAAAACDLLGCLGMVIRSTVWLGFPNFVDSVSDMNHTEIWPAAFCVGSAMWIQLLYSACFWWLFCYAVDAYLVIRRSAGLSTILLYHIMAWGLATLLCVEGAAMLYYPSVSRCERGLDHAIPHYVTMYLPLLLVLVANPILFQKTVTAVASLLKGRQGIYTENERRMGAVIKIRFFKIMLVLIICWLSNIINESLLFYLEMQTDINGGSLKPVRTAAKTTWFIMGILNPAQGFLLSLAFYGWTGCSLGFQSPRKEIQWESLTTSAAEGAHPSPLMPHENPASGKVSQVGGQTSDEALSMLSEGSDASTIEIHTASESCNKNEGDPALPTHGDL", "experiment": "PRESTO-Tango GPCR screen", "details": "100 µM", "description": "as §1"}, "GPR160": {"target": "T7, GPR160 (Homo sapiens, UniProt Q9UJ42)", "T7 construct": "purchased PRESTO-Tango GPCR kit (Roth lab / Addgene)", "experiment": "PRESTO-Tango GPCR screen", "details": "100 µM", "description": "as §1"}, "HCA2": {"target": "T8, HCA2 (Homo sapiens, UniProt Q8TDS4)", "T8 construct": "purchased PRESTO-Tango GPCR kit (Roth lab / Addgene)", "T8 sequence (Q8TDS4 whole entry)": "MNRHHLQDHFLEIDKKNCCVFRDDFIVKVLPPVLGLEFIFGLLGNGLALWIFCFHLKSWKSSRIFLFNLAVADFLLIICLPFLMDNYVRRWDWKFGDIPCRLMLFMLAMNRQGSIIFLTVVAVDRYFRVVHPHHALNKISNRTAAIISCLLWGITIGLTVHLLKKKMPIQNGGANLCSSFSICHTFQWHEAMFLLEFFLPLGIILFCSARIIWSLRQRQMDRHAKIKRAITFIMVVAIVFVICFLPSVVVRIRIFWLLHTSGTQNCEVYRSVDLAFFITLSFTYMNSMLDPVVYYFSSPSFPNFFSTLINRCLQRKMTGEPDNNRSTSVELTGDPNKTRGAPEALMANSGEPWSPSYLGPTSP", "experiment": "PRESTO-Tango GPCR screen", "details": "100 µM", "description": "as §1"}, "GPR18": {"target": "T9, GPR18 (Homo sapiens, UniProt Q14330)", "T9 construct": "purchased PRESTO-Tango GPCR kit (Roth lab / Addgene)", "T9 sequence (Q14330 whole entry)": "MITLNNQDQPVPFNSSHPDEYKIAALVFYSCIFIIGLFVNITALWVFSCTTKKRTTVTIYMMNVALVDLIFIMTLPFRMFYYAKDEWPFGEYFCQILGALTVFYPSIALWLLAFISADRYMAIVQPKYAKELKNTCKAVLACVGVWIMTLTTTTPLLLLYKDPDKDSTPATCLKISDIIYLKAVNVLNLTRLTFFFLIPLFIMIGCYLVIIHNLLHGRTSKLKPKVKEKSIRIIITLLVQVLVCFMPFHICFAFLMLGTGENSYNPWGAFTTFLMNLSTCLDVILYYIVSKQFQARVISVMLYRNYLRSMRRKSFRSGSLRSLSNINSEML", "experiment": "PRESTO-Tango GPCR screen", "details": "100 µM", "description": "as §1"}, "SSTR5": {"target": "T10, SSTR5 (Homo sapiens, UniProt P35346)", "T10 construct": "purchased PRESTO-Tango GPCR kit (Roth lab / Addgene)", "experiment": "PRESTO-Tango GPCR screen", "details": "100 µM", "description": "as §1"}, "APJ": {"target": "T11, APJ (Homo sapiens, UniProt P35414)", "T11 construct": "purchased PRESTO-Tango GPCR kit (Roth lab / Addgene)", "T11 sequence (P35414 whole entry)": "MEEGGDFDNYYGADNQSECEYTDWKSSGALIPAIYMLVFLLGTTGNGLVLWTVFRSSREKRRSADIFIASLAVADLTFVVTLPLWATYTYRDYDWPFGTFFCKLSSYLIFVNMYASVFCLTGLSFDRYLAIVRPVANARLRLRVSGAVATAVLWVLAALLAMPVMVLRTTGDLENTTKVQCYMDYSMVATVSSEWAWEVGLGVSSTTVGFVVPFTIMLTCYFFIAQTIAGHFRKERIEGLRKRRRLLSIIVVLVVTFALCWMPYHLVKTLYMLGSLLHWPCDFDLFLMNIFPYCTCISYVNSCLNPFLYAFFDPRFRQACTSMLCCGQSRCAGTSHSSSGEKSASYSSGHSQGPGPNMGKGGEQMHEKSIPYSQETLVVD", "experiment": "PRESTO-Tango GPCR screen", "details": "100 µM", "description": "as §1"}, "AVPR2": {"target": "T12, AVPR2 (Homo sapiens, UniProt P30518)", "T12 construct": "purchased PRESTO-Tango GPCR kit (Roth lab / Addgene)", "experiment": "PRESTO-Tango GPCR screen", "details": "100 µM", "description": "as §1"}, "GPR115": {"target": "T13, GPR115 (Homo sapiens, UniProt Q8IZF3)", "T13 construct": "purchased PRESTO-Tango GPCR kit (Roth lab / Addgene)", "T13 sequence (Q8IZF3 22-695)": "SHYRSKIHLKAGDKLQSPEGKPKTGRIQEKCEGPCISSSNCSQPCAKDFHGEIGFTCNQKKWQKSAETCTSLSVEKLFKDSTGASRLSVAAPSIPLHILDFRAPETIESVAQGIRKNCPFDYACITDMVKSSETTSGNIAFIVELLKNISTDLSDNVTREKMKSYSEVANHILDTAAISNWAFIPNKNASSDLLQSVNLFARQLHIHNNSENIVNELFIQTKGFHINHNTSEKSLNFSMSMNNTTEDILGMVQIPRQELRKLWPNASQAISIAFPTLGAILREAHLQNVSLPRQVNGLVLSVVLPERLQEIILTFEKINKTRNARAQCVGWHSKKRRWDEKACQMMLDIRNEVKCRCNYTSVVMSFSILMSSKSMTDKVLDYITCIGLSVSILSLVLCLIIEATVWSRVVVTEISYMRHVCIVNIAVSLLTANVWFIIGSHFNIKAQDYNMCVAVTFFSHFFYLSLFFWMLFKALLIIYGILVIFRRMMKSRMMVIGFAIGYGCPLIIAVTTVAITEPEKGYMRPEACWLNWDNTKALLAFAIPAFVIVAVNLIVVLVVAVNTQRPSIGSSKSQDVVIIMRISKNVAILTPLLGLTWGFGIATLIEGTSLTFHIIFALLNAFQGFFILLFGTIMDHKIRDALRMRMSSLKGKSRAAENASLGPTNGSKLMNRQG", "experiment": "PRESTO-Tango GPCR screen", "details": "100 µM", "description": "as §1"}, "GPR101": {"target": "T14, GPR101 (Homo sapiens, UniProt Q96P66)", "T14 construct": "purchased PRESTO-Tango GPCR kit (Roth lab / Addgene)", "experiment": "PRESTO-Tango GPCR screen", "details": "100 µM", "description": "as §1"}, "FPR3": {"target": "T15, FPR3 (Homo sapiens, UniProt P25089)", "T15 construct": "purchased PRESTO-Tango GPCR kit (Roth lab / Addgene)", "experiment": "PRESTO-Tango GPCR screen", "details": "100 µM", "description": "as §1"}, "GPR146": {"target": "T16, GPR146 (Homo sapiens, UniProt Q96CH1)", "T16 construct": "purchased PRESTO-Tango GPCR kit (Roth lab / Addgene)", "T16 sequence (Q96CH1 whole entry)": "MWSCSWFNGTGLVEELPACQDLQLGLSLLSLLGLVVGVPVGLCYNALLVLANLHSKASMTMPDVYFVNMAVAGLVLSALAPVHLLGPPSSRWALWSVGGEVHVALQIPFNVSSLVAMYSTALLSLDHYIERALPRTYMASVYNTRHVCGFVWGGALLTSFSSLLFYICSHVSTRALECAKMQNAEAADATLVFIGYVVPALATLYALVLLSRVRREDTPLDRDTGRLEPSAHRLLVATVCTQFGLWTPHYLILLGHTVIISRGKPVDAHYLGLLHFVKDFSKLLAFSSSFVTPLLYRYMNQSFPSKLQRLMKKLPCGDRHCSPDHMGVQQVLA", "experiment": "PRESTO-Tango GPCR screen", "details": "100 µM", "description": "as §1"}, "MC5R": {"target": "T17, MC5R (Homo sapiens, UniProt P33032)", "T17 construct": "purchased PRESTO-Tango GPCR kit (Roth lab / Addgene)", "experiment": "PRESTO-Tango GPCR screen", "details": "100 µM", "description": "as §1"}, "P2RY4": {"target": "T18, P2RY4 (Homo sapiens, UniProt P51582)", "T18 construct": "purchased PRESTO-Tango GPCR kit (Roth lab / Addgene)", "experiment": "PRESTO-Tango GPCR screen", "details": "100 µM", "description": "as §1"}, "[1]": {"test_system": "314-member panel of human G protein-coupled receptors (GPCRs)", "experiment": "PRESTO-Tango screen of 314-member human GPCR panel", "details": "100 µM, HTLA cells", "description": "as §1, with “Dose response curves of each chemical were performed in a similar way with varying the ligand concentration from 10^−4 M to 10^−15 M.” left out"}, "HRH1": {"target": "T19, HRH1 (Homo sapiens, UniProt P35367)", "T19 construct": "expressed in transfected cells; host or cells: HTLA cells (HEK293 line stably expressing β-arrestin-TEV and tTA-Luciferase)", "T19 sequence (P35367 whole entry)": "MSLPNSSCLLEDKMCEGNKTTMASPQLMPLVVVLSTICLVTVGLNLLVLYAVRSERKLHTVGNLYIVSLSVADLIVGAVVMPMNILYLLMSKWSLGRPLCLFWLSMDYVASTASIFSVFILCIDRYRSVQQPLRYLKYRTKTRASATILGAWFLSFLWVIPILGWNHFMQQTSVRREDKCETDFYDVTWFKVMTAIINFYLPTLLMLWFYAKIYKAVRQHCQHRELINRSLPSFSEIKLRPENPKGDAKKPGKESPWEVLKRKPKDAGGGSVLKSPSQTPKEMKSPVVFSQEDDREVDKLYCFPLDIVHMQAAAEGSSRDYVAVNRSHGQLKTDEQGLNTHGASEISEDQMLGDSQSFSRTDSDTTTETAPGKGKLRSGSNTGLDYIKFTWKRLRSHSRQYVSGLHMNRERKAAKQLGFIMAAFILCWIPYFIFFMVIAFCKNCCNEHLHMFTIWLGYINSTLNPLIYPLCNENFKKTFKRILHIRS", "experiment": "PRESTO-Tango GPCR screen and dose-response", "details": "for HRH1 dose-response raw reporter signal (Fig. 5b source data): replicate wells", "outline": "(§2)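 Each receptor was expressed from a Tango plasmid in HTLA cells, which stably carry β-arrestin-TEV and a tTA-driven luciferase reporter. Single-point screening used 100 μM final compound for 20 h, and the signal was normalised to PBS control. Concentration-response testing spanned 10^−4 to 10^−15 M.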"}, "HRH3": {"target": "T20, HRH3 (Homo sapiens, UniProt Q9Y5N1)", "T20 construct": "expressed in transfected cells; host or cells: HTLA cells (HEK293 line stably expressing β-arrestin-TEV and tTA-Luciferase)", "T20 sequence (Q9Y5N1 whole entry)": "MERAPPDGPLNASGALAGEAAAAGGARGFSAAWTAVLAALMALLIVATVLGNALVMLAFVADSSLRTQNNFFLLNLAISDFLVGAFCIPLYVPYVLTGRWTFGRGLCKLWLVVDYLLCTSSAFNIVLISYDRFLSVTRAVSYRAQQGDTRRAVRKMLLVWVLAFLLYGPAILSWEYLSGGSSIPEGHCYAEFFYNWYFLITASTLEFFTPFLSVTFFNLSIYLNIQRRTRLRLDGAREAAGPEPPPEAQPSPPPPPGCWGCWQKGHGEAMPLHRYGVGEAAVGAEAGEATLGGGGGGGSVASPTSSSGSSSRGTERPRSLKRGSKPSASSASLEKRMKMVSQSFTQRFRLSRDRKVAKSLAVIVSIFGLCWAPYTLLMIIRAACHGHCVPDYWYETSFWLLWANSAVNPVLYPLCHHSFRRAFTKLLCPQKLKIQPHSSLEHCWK", "experiment": "PRESTO-Tango GPCR screen and dose-response", "details": "for HRH3 dose-response raw reporter signal (Fig. 5b source data): replicate wells", "outline": "as §2"}}, "note": "Values joined by “and” are separate entries in the source; they are usually repeats but may differ in a detail not shown here. Equal values may be shown once.", "data": [{"smiles": "CC(C)Cc1ncc(CCCNC(=N)N)[nH]c1=O", "note": "[compound 3]", "values": [{"measurement": "GPCR activation (heatmap value)", "setting": "P2RY2", "value": 0.0313}, {"measurement": "GPCR activation (heatmap value)", "setting": "GPBA", "value": -0.136}, {"measurement": "GPCR activation (heatmap value)", "setting": "CCR6", "value": 0.5005}, {"measurement": "GPCR activation (heatmap value)", "setting": "VIPR2", "value": -0.5721}, {"measurement": "GPCR activation (heatmap value)", "setting": "GPR77", "value": 0.5685}, {"measurement": "GPCR activation (heatmap value)", "setting": "GPR143", "value": 0.5685}, {"measurement": "GPCR activation (heatmap value)", "setting": "GPR160", "value": 0.6688}, {"measurement": "GPCR activation (heatmap value)", "setting": "HCA2", "value": 0.2197}, {"measurement": "GPCR activation (heatmap value)", "setting": "GPR18", "value": 0.788}, {"measurement": "GPCR activation (heatmap value)", "setting": "SSTR5", "value": -1.082}, {"measurement": "GPCR activation (heatmap value)", "setting": "APJ", "value": 0.6044}, {"measurement": "GPCR activation (heatmap value)", "setting": "AVPR2", "value": -1.811}, {"measurement": "GPCR activation (heatmap value)", "setting": "GPR115", "value": 0.3053}, {"measurement": "GPCR activation (heatmap value)", "setting": "GPR101", "value": 0.4147}, {"measurement": "GPCR activation (heatmap value)", "setting": "FPR3", "value": 0.01401}, {"measurement": "GPCR activation (heatmap value)", "setting": "GPR146", "value": -0.2269}, {"measurement": "GPCR activation (heatmap value)", "setting": "MC5R", "value": -0.2243}, {"measurement": "GPCR activation (heatmap value)", "setting": "P2RY4", "value": 0.7544}, {"measurement": "selectivity across the GPCR panel", "setting": "[1]", "value": "selective agonists for histamine receptor H4"}, {"measurement": "GPCR activation (heatmap value)", "setting": "HRH1; HRH1, 100 µM", "value": 0.7784}, {"measurement": "HRH1 dose-response raw reporter signal (Fig. 5b source data)", "setting": "HRH1; Log(10)Conc (M) -4", "value": "68060 and 70767"}, {"measurement": "HRH1 dose-response raw reporter signal (Fig. 5b source data)", "setting": "HRH1; Log(10)Conc (M) -5", "value": "51882 and 55219"}, {"measurement": "HRH1 dose-response raw reporter signal (Fig. 5b source data)", "setting": "HRH1; Log(10)Conc (M) -6", "value": "48232 and 47554"}, {"measurement": "HRH1 dose-response raw reporter signal (Fig. 5b source data)", "setting": "HRH1; Log(10)Conc (M) -7", "value": "45272 and 47466"}, {"measurement": "HRH1 dose-response raw reporter signal (Fig. 5b source data)", "setting": "HRH1; Log(10)Conc (M) -8", "value": "44320 and 47843"}, {"measurement": "HRH1 dose-response raw reporter signal (Fig. 5b source data)", "setting": "HRH1; Log(10)Conc (M) -9", "value": "43919 and 48335"}, {"measurement": "HRH1 dose-response raw reporter signal (Fig. 5b source data)", "setting": "HRH1; Log(10)Conc (M) -10", "value": "42578 and 45208"}, {"measurement": "HRH1 dose-response raw reporter signal (Fig. 5b source data)", "setting": "HRH1; Log(10)Conc (M) -11", "value": "43999 and 46555"}, {"measurement": "HRH1 dose-response raw reporter signal (Fig. 5b source data)", "setting": "HRH1; Log(10)Conc (M) -12", "value": "42215 and 46142"}, {"measurement": "HRH1 dose-response raw reporter signal (Fig. 5b source data)", "setting": "HRH1; Log(10)Conc (M) -13", "value": "45172 and 46997"}, {"measurement": "HRH1 dose-response raw reporter signal (Fig. 5b source data)", "setting": "HRH1; Log(10)Conc (M) -14", "value": "41526 and 48557"}, {"measurement": "HRH1 dose-response raw reporter signal (Fig. 5b source data)", "setting": "HRH1; Log(10)Conc (M) -15", "value": "37080 and 42401"}, {"measurement": "GPCR activation (heatmap value)", "setting": "HRH3; HRH3, 100 µM", "value": -0.154}, {"measurement": "HRH3 dose-response raw reporter signal (Fig. 5b source data)", "setting": "HRH3; Log(10)Conc (M) -4", "value": "248 and 233 and 159"}, {"measurement": "HRH3 dose-response raw reporter signal (Fig. 5b source data)", "setting": "HRH3; Log(10)Conc (M) -5", "value": "121 and 136 and 127"}]}]}
